{"source": "patent US6534094B2", "about": "“Manufacturing process of microcapsules for sustained release of water soluble peptides” (Eriochem S.A., priority 2000, dated 2003)", "origin": "cited, not measured here", "details": "superactive agonist of LH-RH; fold of the biological activity of LH-RH", "data": [{"molecule": "CCNC(=O)[C@@H]1CCCN1C(=O)[C@H](CCCNC(=N)N)NC(=O)[C@H](CC(C)C)NC(=O)[C@@H](CC(C)C)NC(=O)[C@H](Cc1ccc(O)cc1)NC(=O)[C@H](CO)NC(=O)[C@H](Cc1c[nH]c2ccccc12)NC(=O)[C@H](Cc1c[nH]cn1)NC(=O)[C@@H]1CCC(=O)N1", "note": "[leuprolide acetate]", "values": [{"measurement": "biological activity relative to LH-RH", "value": "approximately 10 times"}]}]}
